Measurements as given in patent US6933150B1, “Relationship of ABC transport proteins with hematopoietic stem cells and methods of use thereof” (priority 1998, dated 2005).

What was measured:
[1] = system: ABC transporter; assay: SP cell analysis of mdr1a/1b knockout bone marrow cells treated with ABC transporter inhibitors; conditions: treatment before and during Hoechst 33342 staining
Experimental: Hoechst 33342 SP cell assay: Murine bone marrow cells were collected and resuspended at 1×10^6 cells/ml in DMEM plus 10 mM HEPES and 2%, FBS. In a water bath, the cells were allowed to equilibrate at 37° C., followed by addition of 5 μg/ml Hoechst 33342 (Fisher Scientific, Pittsburgh, Pa.) for 90 minutes as previously described [Goodell et al., J. Exp. Med., 183:1797-1806 (1996)]. Cells were then centrifuged at 4° C. and resuspended in ice cold HBSS plus 10 mM HEPES and 2% FBS at 1×10^7 cells/ml. For flow cytometric analysis or sorting, a Becton Dickinson FACS Vantage flow cytometer (Becton Dickinson, San Jose, Calif.) was configured for dual emission wavelength analysis as previously described [Goodell et al., J. Exp. Med., 183:1797-1806 (1996)]. Cells were gated based on forward and side light scatter to exclude debris. […] Cells were analyzed at approximately 5,000 cells/second until data from 1×10^6 cells were collected. The SP cell gate was defined based on normal fresh C57BL/6 bone marrow cells.
Cells were treated with either verapamil or 2-deoxyglucose. Verapamil is a competitive inhibitor of several known ABC transporters including MDR1, whereas 2-deoxyglucose is an inhibitor of ATP synthesis that depletes cellular ATP levels required for ABC transporter function.

[2] = system: myeloid progenitors; assay: Drug-resistant myeloid progenitor (CFU-C) assay in methylcellulose; type: cell-based, mouse; conditions: 25 to 50 nM, thymidine phosphorylase-treated methylcellulose
Experimental: Ex vivo culture and expansion of myeloid progenitors: Following transduction (day 0), cells were cultured in the presence of the growth factor combination described above. Cells were resuspended at 1×10^6 cells/ml every 3-6 days for at least 12 days of expansion. Aliquots of cells were removed for CFU-C analysis at various time points.
Retroviral-mediated gene transfer into murine hematopoietic stem cells: BM cells were harvested from C57BL/6 or B6.Ch-1/By (referred to as “HW80”) congenic mouse strains (Jackson Laboratories, Bar Harbor, Me. ) by standard methods. Following isolation, cells were placed into liquid suspension culture in Dulbecco's Modified Eagle's Medium (DMEM) (BioWhittaker, Walkersville, Md.) with 1% penicillin/streptomycin (Gibco/BRL, Grand Island, N.Y.), 15% fetal bovine serum (FBS; Hyclone, Logan Utah), 20 ng/ml murine interleukin (IL)-3®& D Systems, Minneapolis, Minn.), 50 ng/ml human IL-6 (Amgen, Thousand Oaks, Calif.), and 50 ng/ml murine stem cell factor ® & D Systems). The cells were initially plated at 1×10^6 cells/ml in 10 mls of medium. Following pre-stimulation for 48 hours, cells were replated onto confluent monolayers of irradiated ecotropic producer cell lines. The bone marrow cells were plated at the same density used in the pre-stimulation phase and in the same medium with 6 μg/ml polybrene added. […]

| SMILES | Effect on SP cell phenotype [1] | Killing of non-transduced background cells [2] |
| --- | --- | --- |
| O=CC[C@@H](O)[C@H](O)[C@H](O)CO [2-deoxyglucose] | eliminated phenotypically identifiable SP cells | – |
| COc1cc(NCc2ccc3nc(N)nc(N)c3c2C)cc(OC)c1OC [trimetrexate] | – | completely killed |
| COc1ccc(CCN(C)CCCC(C#N)(c2ccc(OC)c(OC)c2)C(C)C)cc1OC (stereo not drawn) [verapamil] | eliminated phenotypically identifiable SP cells | – |
